Data reported in patent publication US10525110B2, “Methods for inducing partial apoptosis using caspase polypeptides” (Bellicum Pharmaceuticals, Inc., priority 2013, dated 2020).
Where two headings read alike, the source gives them in different places.

Key:
[1] = test system: human CD3+CD19+ T cells; experiment: AP1903 dose-dependent elimination in vivo of iCasp9-transduced T cells in NSG mice; set-up: species or system immune deficient mice (NSG); conditions: i.p., wild-type iCasp9-transduced T cells, 24 hours
Method: (§1) FIG. 65A-B: AP1903 dose-dependent elimination in vivo of T cells transduced with wild-type iCasp9. T cells were transduced with SFG-iCasp9-2A-ΔCD19 retrovirus and injected i.v. into immune deficient mice (NSG). After 24 hours, mice were injected i.p. with AP1903 (0-5 mg/kg). After an additional 24 hours, mice were sacrificed and lymphocytes from the spleen (65A) and peripheral blood (65B) were isolated and analyzed by flow cytometry for the frequency of human CD3^+CD19^+ T cells.
as §1, with “66:” for “65A-B:”, “D330E” for “wild-type”, “SFG-iCasp9-D330E-2A-ΔCD19” for “SFG-iCasp9-2A-ΔCD19”, “(A)” for “(65A) and peripheral blood (65B)”

[2] = cited from earlier work
[3] = test system: cells; experiment: AP1903 needed in vitro for effective signaling of cells; type: cell-based
[4] = test system: CD3+ΔCD19+ cells; experiment: CASPALLO phase 1 trial: AP1903 in patients with GvHD after iCasp9 T cell infusion; type: in vivo, human
[5] = Phase I study of AP1903 in healthy volunteers; type: in vivo; conditions: male, human, plasma, intravenous, 0.4 mg/kg; reached within 15-30 min
Method: FIG. 49(A-B) provides the results of a dose-escalation study in normal male volunteers. FIG. 49A is a line graph and 49B is a chart. Healthy volunteers were infused with the indicated doses of AP1903 and at various time points, serum levels of AP1903 were measured using HPLC analysis.
In a previous Phase I study of AP1903, 24 healthy volunteers were treated with single doses of AP1903 for Injection at dose levels of 0.01, 0.05, 0.1, 0.5 and 1.0 mg/kg infused IV over 2 hours. […] Iuliucci J D, et al., J Clin Pharmacol. 41: 870-9, 2001.

CC[C@H](C(=O)N1CCCC[C@H]1C(=O)O[C@H](CCc1ccc(OC)c(OC)c1)c1cccc(OCC(=O)NCCNC(=O)COc2cccc([C@@H](CCc3ccc(OC)c(OC)c3)OC(=O)[C@@H]3CCCCN3C(=O)[C@@H](CC)c3cc(OC)c(OC)c(OC)c3)c2)c1)c1cc(OC)c(OC)c(OC)c1 (relative stereo) [AP1903, 2-Piperidinecarboxylic acid, 1-[(2S)-1-oxo-2-(3,4,5-trimethoxyphenyl)butyl]-, 1,2-ethanediylbis[imino(2-oxo-2,1-ethanediyl)oxy-3,1-phenylene[(1R)-3-(3,4-dimethoxyphenyl)propylidene]] ester, [2S-[1(R*),2R*[S*[S*[1(R*),2R*]]]]]-(9Cl)]
dose sufficient to eliminate most modified T cells in vivo [1]: 0.5 mg/kg | safety and tolerability in healthy volunteers ([2]; 0.01 mg/kg to 1.0 mg/kg dose range, listed as AP1903 for Injection): safe and well tolerated at all dose levels | relation of plasma levels to dose ([2]; 0.01-1.0 mg/kg): directly proportional to dose | plasma level as % of maximal concentration ([2]; 2 hours post-dose): ~7% | plasma level as % of maximal concentration ([2]; 10 hours post-dose): ~1% | well-tolerated doses ([2]; Phase I study): up to 1 mg/kg | amount needed in vitro for effective signaling of cells [3]: 10 to 100 nM | effect of a single dose on GvHD-causing and virus specific T cells ([4]; human, in vivo): can reduce or eliminate the subpopulation of T cells causing GvHD, but can spare virus specific CTLs | further reduction of CD3+ΔCD19+ cells ([4]; within 24 hours): additional log killing | Cmax [5]: 100 to 1000 nM
